Consider 12 compounds from patent US9643969B2, “(aza)indolizine derivative and pharmaceutical use thereof” (KISSEI PHARMACEUTICAL CO., LTD., priority 2010, dated 2017).

In data set [1] the target is T1, Xanthine oxidase (from bovine milk) (Bos taurus, UniProt P80457).
T1 construct: Xanthine oxidase (from bovine milk, manufactured by Sigma); purchased Sigma; host or cells: bovine milk
Kind of data set: Xanthine oxidase inhibitory activity. It counts as biochemical. The note with it: xanthine 200 μM added at 100 μL/well, 10 minutes at room temperature, absorbance at 290 nm. The method, then:
Xanthine Oxidase Inhibitory Activity
(1) Preparation of Test Compounds
Test compounds were dissolved in dimethyl sulfoxide (DMSO) (manufactured by Wako pure chemical) at 40 mM concentration and then diluted to intended concentrations with phosphate-buffered saline (PBS).
(2) Method of Measurement
Xanthine oxidase (from bovine milk, manufactured by Sigma) was prepared with phosphate-buffered saline (PBS) at 0.02 units/mL, and then the solution was added to 96-well plates at 50 μL/well. In addition, test compounds diluted with PBS were added at 50 μL/well. Xanthine (manufactured by Wako pure chemical) at 200 μM prepared with PBS was added at 100 μL/well, and the reaction was conducted for 10 minutes at room temperature. Absorbance at 290 nm was measured by using a microplate reader SpectraMax Plus 384 (manufactured by Molecular device). The absorbance under a condition without xanthine is 0%, and control without test compounds is 100%. Fifty % inhibitory concentration of a test compound (IC50) was calculated (Table 4). “Ex. No” in the table indicates Example number.

A short description of another data set: Acute toxicity test. In kind it is in vivo. The note with it: 300 mg/kg orally, male ICR mice, 24 hours after administration. The method, then: Test compounds of Examples 2 and 12 (300 mg/kg) suspended in 0.5% methylcellulose solution were orally administered to male ICR mice (7-week-old, 5 mice per group), and the general condition during 24 hours after administration was observed.

The target of the next data set is T2, human URAT1 (Homo sapiens, UniProt Q96S37).
T2 construct: expressed in transfected cells; host or cells: HEK293 cells
T2 sequence (Q96S37 1-553): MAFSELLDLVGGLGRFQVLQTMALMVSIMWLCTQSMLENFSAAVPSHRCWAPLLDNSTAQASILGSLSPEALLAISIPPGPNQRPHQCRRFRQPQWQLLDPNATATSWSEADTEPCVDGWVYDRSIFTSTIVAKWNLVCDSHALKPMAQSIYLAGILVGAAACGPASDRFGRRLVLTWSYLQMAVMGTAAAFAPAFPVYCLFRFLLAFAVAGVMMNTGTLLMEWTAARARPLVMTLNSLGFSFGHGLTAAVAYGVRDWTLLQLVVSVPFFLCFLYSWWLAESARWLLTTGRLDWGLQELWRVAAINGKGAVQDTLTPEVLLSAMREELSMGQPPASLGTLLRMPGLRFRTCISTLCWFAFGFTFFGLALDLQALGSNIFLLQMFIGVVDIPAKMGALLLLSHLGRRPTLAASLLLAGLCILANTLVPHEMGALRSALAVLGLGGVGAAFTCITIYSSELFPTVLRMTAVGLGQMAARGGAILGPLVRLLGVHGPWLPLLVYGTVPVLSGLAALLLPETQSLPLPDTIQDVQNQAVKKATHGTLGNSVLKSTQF
Kind of data set: Inhibitory activity of uric acid transport with human URAT1-expressing cells. In kind it is cell-based. The note with it: 10 μM test compound; URAT1-expressing HEK293 cells; 14C uric acid 50 μM, 2 minutes at 37° C.; read-out: percent inhibition of uric acid uptake. The method, then: Inhibitory Activity of Uric Acid Transport with Human URAT1-Expressing Cells
(1) Cells Used in the Test
URAT1-expressing HEK293 cells (HEK293 cells transfected with vector containing human URAT1 cDNA) and control cells (HEK293 cells transfected with vector alone) were used.
URAT1-expressing cells and control cells were seeded in collagen I-coated 24-well plates (manufactured by BD FALCON) at 1 to 4×10^5 cells/well, and cultured in CO2 incubator (37° C., CO2: 5%) for 1 to 3 days, and then the following measurement of uric acid transport was conducted. In addition, Dulbecco's Modified Eagle Medium (manufactured by Invitrogen) containing 9% fetal bovine serum (manufactured by Invitrogen), antibiotic-antimycotic (manufactured by Invitrogen) and 2 mmol/L L-glutamine were used for the culture.
(2) Preparation of Test Compounds
^14C-labeled uric acid (^14C uric acid) (manufactured by American Radiolabeled Chemicals, Inc.) was dissolved in Hanks' balanced salt solution (HBSS) (manufactured by Invitrogen) to prepare HBSS containing ^14C uric acid at 50 μM. Test compounds were dissolved in DMSO and then diluted to 1000-fold with the prepared HBSS containing ^14C uric acid above to prepare ^14C uric acid solution containing the indicated concentration of test compounds (final concentration of DMSO: 0.1%). ^14C uric acid solution containing 0.1% DMSO was prepared as a control.
(3) Measurement of Uric Acid Transport
After the medium was removed from the plates in which cells were seeded, and 1 mL of HBSS was added to the cells. After the HBSS was removed, 0.3 mL of HBSS was newly added to the cells, which were incubated at 37° C. for 15 minutes. After the HBSS was removed, 0.3 mL of ^14C uric acid solution containing 0.1% DMSO or test compounds was added to the cells, which were then incubated at 37° C. for 2 minutes. After the incubation, the solution was removed, and the cells were washed once with 1 mL of ice-cold phosphate-buffered saline containing 0.2% BSA, and washed twice with 1 mL of ice-cold PBS. After the PBS was removed, the cells were lysed by addition of 0.5 mL of 0.1 mol/L NaOH aqueous solution for each well. The cell lysates (0.3 mL/well) were transferred into glass vials, and mixed with 10 mL of a scintillator (Hionic-Fluor, manufactured by Perkin Elmer). The radioactivity was measured by means of a liquid scintillation counter.
(4) Protein Determination
Protein concentration in the cell lysates was determined by BCA Protein Assay Kit (manufactured by Pierce) and then amount of protein (mg/well) was calculated.
(5) Calculation of the Percent Inhibition of Uric Acid Uptake for Each Compound
Uric acid uptake activity in each well was calculated by the following formula. Uric acid uptake activity (p mol/mg protein)=radioactivity (dpm/well)/[amount of protein (mg/well)×concentration of radioactivity in HBSS containing ^14C uric acid (dpm/p mol)]
Percent inhibition was calculated according to the following formula. Percent inhibition (%)=[1−(B−C)/(A−C)]×100 • A: Uric acid uptake activity in URAT1-expressing HEK293 cells in the presence of 0.1% DMSO • B: Uric acid uptake activity in URAT1-expressing HEK293 cells in the presence of test compounds • C: Uric acid uptake activity in control cells in the presence of 0.1% DMSO (6) Results

Data set [2] in a line: Hypouricemic effect (serum uric acid levels in rats). In kind it is in vivo. The following applies: oral administration at 1 mg/kg; male CD (SD) IGS rats; serum at 2 hours after administration. The method, then: (1) Method of Measurement
Test compounds (1 mg/kg) suspended in 0.5% methylcellulose solution were orally administered to overnight fasted male CD (SD) IGS rats (5-week-old, Charles River Japan). At 2 hours after administration, blood was collected under ether anesthesia from abdominal aorta, and serum was separated according to a general method. Serum uric acid levels were determined by use of uric acid measurement kit (Uric acid C-Test Wako: manufactured by Wako pure chemical), and percent decrease in uric acid was calculated according to the formula described below. Percent decrease in uric acid (%)=(Serum uric acid levels in control animals−Serum uric acid levels in animals administered test compounds)×100/Serum uric acid levels in control animals (2) Results

T1 sequence (P80457 whole entry): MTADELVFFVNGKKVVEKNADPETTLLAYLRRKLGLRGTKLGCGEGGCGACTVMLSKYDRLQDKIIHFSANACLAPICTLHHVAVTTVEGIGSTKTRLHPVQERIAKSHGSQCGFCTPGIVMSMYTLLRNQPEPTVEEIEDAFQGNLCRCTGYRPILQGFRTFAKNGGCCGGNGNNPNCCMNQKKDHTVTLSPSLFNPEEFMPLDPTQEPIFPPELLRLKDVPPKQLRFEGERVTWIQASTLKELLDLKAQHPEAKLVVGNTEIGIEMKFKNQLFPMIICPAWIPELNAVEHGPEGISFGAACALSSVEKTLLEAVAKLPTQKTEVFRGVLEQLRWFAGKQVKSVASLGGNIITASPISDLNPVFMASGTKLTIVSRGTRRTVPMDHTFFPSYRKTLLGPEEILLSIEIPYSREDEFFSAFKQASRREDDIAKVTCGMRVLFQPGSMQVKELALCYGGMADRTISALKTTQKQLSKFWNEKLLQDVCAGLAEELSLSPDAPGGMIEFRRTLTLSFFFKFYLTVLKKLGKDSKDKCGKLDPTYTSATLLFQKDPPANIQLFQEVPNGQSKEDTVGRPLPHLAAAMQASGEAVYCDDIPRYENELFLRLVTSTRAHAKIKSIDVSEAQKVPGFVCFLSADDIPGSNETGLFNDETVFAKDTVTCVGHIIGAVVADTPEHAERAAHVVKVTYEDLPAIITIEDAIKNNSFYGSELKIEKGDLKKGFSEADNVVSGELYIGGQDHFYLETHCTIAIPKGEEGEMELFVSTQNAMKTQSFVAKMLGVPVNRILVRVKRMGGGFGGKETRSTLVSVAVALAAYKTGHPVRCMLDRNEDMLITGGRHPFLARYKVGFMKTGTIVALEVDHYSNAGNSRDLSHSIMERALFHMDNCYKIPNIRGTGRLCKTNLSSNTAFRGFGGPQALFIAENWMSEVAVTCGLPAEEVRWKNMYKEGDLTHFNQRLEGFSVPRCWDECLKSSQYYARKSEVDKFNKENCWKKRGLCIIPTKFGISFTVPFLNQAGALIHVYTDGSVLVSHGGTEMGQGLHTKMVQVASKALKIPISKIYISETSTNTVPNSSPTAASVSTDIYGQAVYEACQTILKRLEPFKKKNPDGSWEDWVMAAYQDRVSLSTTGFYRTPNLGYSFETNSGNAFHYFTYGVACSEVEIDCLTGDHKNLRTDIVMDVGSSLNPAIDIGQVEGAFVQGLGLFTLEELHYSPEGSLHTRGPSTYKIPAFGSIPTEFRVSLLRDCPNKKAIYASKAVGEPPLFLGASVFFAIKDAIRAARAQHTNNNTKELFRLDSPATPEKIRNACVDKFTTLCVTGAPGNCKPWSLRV

With `N#Cc1cc(-c2ccc(C(=O)O)c(O)c2)c2cccnn12` [Example 2, 4-(7-Cyanopyrrolo[1,2-b]pyridazine-5-yl)-2-hydroxy benzoic acid], in data set [1], the IC50 was 5 nM. The general condition result in the data set “Acute toxicity test” was “no abnormalities in general conditions were observed”.
In data set [1], `N#Cc1cc(-c2ccc(C(=O)O)cc2)c2ccccn12` [Example 7] came in with an IC50 of 8 nM.
The same measure, in the same setting: under `N#Cc1cn(-c2ccc(C(=O)O)c(O)c2)c2cccnc12` [Example 15, 4-(3-Cyanopyrrolo[3,2-b]pyridine-1-yl)-2-hydroxy benzoic acid] stands 10 nM; under `N#Cc1cc(-c2ccc(C(=O)O)cc2)c2cccnn12` [Example 1, 4-(7-Cyanopyrrolo[1,2-b]pyridazine-5-yl)benzoic acid], 7 nM.
The same measure, in the same setting: under `Cc1ccnn2c(-c3ccc(C(=O)O)cc3)cc(C#N)c12` [Example 11, 4-(5-Cyano-4-methylpyrrolo[1,2-b]pyridazine-7-yl)benzoic acid] stands 10 nM.
As for `N#Cc1cc(-c2ccc(C(=O)O)c(O)c2)n2ncccc12` [Example 12], the inhibition at 10 µM at human URAT1 is at least 50%. The compound also returned an IC50 in data set [1] of 4 nM. Also, in “Acute toxicity test”, the general condition result is “no abnormalities in general conditions were observed”.
Take `Cc1ccc2c(-c3ccc(C(=O)O)c(O)c3)cc(C#N)n2n1` [Example 3]: in data set [2], the “percent decrease in uric acid” value is listed as “not less than 60%”. Further, the inhibition at 10 µM at human URAT1 was at least 50%. The compound also displayed an IC50 in data set [1] of 5 nM.
`N#Cc1cc(-c2ccc(C(=O)O)cc2)n2ncccc12` [Example 10] had an IC50 in data set [1] of 12 nM.
For `COc1ccc2c(-c3ccc(C(=O)O)c(O)c3)cc(C#N)n2n1` [Example 6], the inhibition at 10 µM at human URAT1 is at least 50%. For the same compound, in data set [1], the midpoint of inhibition, the IC50, lay at 3 nM.
In the same order, the values of `N#Cc1cc(-c2ccc(C(=O)O)c(O)c2)c2ccccn12` [Example 8] are at least 50% and 12 nM.
For `Cc1ccc2c(-c3ccc(C(=O)O)c(O)c3)cc(C#N)n2c1C` [Example 16], the inhibition at 10 µM at human URAT1 is at least 50%. Moreover, the concentration for half-maximal inhibition (IC50) in data set [1] was determined as 13 nM.
The like results for `N#Cc1cc(-c2ccc(C(=O)O)c(O)c2)c2ccc(F)cn12` [Example 9] were, in that order, at least 50% and 4 nM.

Broadly, the IC50 is the midpoint of a concentration-inhibition curve. A higher IC50 goes with weaker potency in that assay. As usually defined, the inhibition is how much of the control response was suppressed.
